Experimental data reported in patent US12030888B2, “Himastatin derivatives, and processes of preparation thereof, and uses thereof” (priority 2021, dated 2024).
Converted amounts (≈) assume the structure as drawn. Read-outs that look alike come from different tables or passages of the source. Numbered stars: 1 amine (or outer) side, 2 acyl side, 3 side chain; on linkers, the order of the positions; unused ones are H or OH. Square brackets hold non-standard residues; d marks the D form. Peptide text beside a SMILES is read from it. X1 = O=C([C@@H]1C[C@@]2(O)c3ccccc3N[C@H]2N1[*:1])[*:2]; X2 = O=C([C@H]1C[C@]2(O)c3ccccc3N[C@@H]2N1[*:1])[*:2]; X3 = O=C([C@@H]1C[C@H](O)CNN1[*:1])[*:2]; dPiz(5R-OH) = O=C(O)[C@H]1C[C@@H](O)CNN1; Lys(N3) = [N-]=[N+]=NCCCC[C@H](N)C(=O)O; NMeV = CN[C@H](C(=O)O)C(C)C; dHiv = CC(C)[C@@H](O)C(=O)O; Hiv = CC(C)[C@H](O)C(=O)O

How the values were obtained:
[1] = tested on: Vancomycin-Sensitive E. faecalis (T7); type: cell-based, Enterococcus faecalis; settings: Vancomycin-Sensitive (T7)
Description: (§1) Bacillus subtilis subsp. spizizenii (ATCC 6633) and Streptomyces himastatinicus (ATCC 53653) were obtained from the American Type Culture Collection (ATCC). Methicillin-resistant and methicillin-susceptible Staphylococcus aureus (Newman), and vancomycin-resistant (V583) and vancomycin-susceptible (T7) Enterococcus faecalis were obtained from the lab of Dr. Roby P. Bhattacharyya (Massachusetts General Hospital).^6 B. subtilis was grown in brain-heart infusion (BHI) medium at 37° C., S. himastatinicus was grown in tryptone-yeast extract broth (ISP medium 2) at 28° C., E. faecalis was grown in Todd-Hewitt broth, and all other organisms were grown in lysogeny broth (LB) medium at 37° C.
(§2) Minimum inhibitory concentration (MIC) was determined using the broth microdilution method. 20-fold stocks of compound in DMSO were diluted 10-fold in MHB medium and 100 μL of each were added to the first well of a 96-well plate. 50 μL of the first well was then serially diluted through 50 μL MHB medium in wells 2-11. To prepare the bacterial culture, an overnight culture was diluted in MHB until the turbidity matched that of McFarland standard 0.5. Then, the culture was diluted 1:100 and added to wells 1-11, resulting in 2-fold dilutions of antibiotic beginning at 64 μg/mL and a final inoculum of 5×10^5 cfu/mL. 100 μL of MHB medium was added to well 12 as a sterility control, and a row containing no antibiotic was used as a growth control. The plate was incubated at the organism's respective growth temperature overnight (B. subtilis) or 72 h (S. himastatinicus) and the MIC was determined using OD600.
(§3) Minimum inhibitory concentration (MIC) was determined using the broth microdilution method.^7 20-fold (1.28 mg/mL) stocks of compound in dimethylsulfoxide, stored as frozen (−80° C.) 30-μL aliquots, were diluted 10-fold in Mueller Hinton broth (MHB) and a 100-μL sample of each was added to the first well of a 96-well plate. A 50-μL sample of the first well was then serially diluted two-fold through 50-μL NMB medium in wells 2-11. A bacterial culture was prepared from a frozen (−80° C.) stock in the organism's respective growth medium and grown overnight. The culture was then diluted in MHB until the turbidity matched that of McFarland standard 0.5 by measuring the optical density at 600 nm (1×10^8 cfu/mL). Then, the culture was diluted 1:100 and a 50-μL aliquot was added to wells 1-11, resulting in 2-fold dilutions of antibiotic from 64 μg/mL down to 0.0625 μg/mL and a final inoculum of 5×10^5 cfu/mL. A 100-μL aliquot of MHB medium was added to well 12 as a sterility control, and a row containing no antibiotic was used as a growth control. The plate was incubated at the organism's respective growth temperature overnight or 72 h (S. himastatinicus). The MIC was determined by observing the well density by eye and, with the exception of S. himastatinicus which grows in solid colonies in media, was confirmed by measuring the optical density of each well at 600 nm. At least two assays were conducted for each organism on identical lots of compound. No degradation of compound stocks in dimethylsulfoxide was observed by LC-MS analysis after being subjected to multiple freeze-thaw cycles.

[2] = tested on: Bacillus subtilis (ATCC 6633); type: cell-based; settings: for MIC (μg/mL) B. subtilis: ATCC 6633; for MIC in Bacillus subtilis: text and figure legend
Description: as §1, §2, §3

[3] = tested on: Methicillin-Resistant Staphylococcus aureus; type: cell-based; settings: Methicillin-Resistant
Description: as §1, §2, §3

[4] = tested on: Vancomycin-Resistant Enterococcus faecalis (V583); type: cell-based; settings: Vancomycin-Resistant (V583)
Description: as §1, §2, §3

Gram-positive bacteria = type: cell-based; settings: relative to (−)-himastatin (1) where a derivative
Description: as §1, §2, §3

[5] = tested on: Streptomyces himastatinicus (ATCC 53653); type: cell-based; settings: ATCC 53653, 72 h
Description: as §1, §2, §3

[6] = tested on: Methicillin-Sensitive S. aureus (Newman); type: cell-based, Staphylococcus aureus; settings: Newman
Description: as §1, §2, §3

Compound | MIC (μg/mL) VSE faecalis [1] [µg/mL] | MIC (μg/mL) B. subtilis [2] [µg/mL] | MIC (μg/mL) MRSA [3] [µg/mL] | MIC (μg/mL) VRE faecalis [4] [µg/mL] | antibiotic activity (in words) (Gram-positive bacteria) | antibiotic activity (in words) (Gram-positive bacteria; listed as (−)-19) | MIC (μg/mL) S. himastatinicus [5] [µg/mL] | MIC (μg/mL) MSSA [6] [µg/mL] | antibiotic activity (in words) (Gram-positive bacteria; listed as (−)-15) | MIC in Bacillus subtilis [2] [µg/mL] | MIC in Bacillus subtilis ([2]; listed as TAMRA-himastatin) [µg/mL]
CC(C)C[C@@H]1NC(=O)[C@H]2CCCN2C(=O)[C@H](C(C)C)OC(=O)[C@@H](C(C)C)NC(=O)[C@@H]2C[C@@]3(O)c4cc(-c5ccc6c(c5)[C@]5(O)C[C@H]7C(=O)N[C@H](C(C)C)C(=O)O[C@@H](C(C)C)C(=O)N8CCC[C@@H]8C(=O)N[C@@H](CC(C)C)C(=O)N[C@H]([C@H](C)O)C(=O)N7[C@@H]5N6)ccc4N[C@H]3N2C(=O)[C@@H]([C@H](C)O)NC1=O [(−)-30, Himastatin Proline Derivative] | >64 | >64 | >64 | >64 | complete abolishment of antibiotic activity | antibiotic activity was completely abolished | >64 | >64 |  |  | 
CC(C)C[C@@H]1NC(=O)[C@H]2CCCN2C(=O)[C@H](C(C)C)OC(=O)[C@@H](C(C)C)NC(=O)[C@@H]2C[C@@]3(O)c4ccccc4N[C@H]3N2C(=O)[C@@H]([C@H](C)O)NC1=O [(+)-29, Proline Cyclic Depsihexapeptide] (cyclo([Hiv][dP]L[dT][X1][dV])) | >64 | >64 | >64 | >64 |  |  | >64 | >64 |  |  | 
CC(C)C[C@@H]1NC(=O)[C@H]2C[C@@H](O)CNN2C(=O)[C@H](C(C)C)NC(=O)[C@@H](C(C)C)NC(=O)[C@@H]2C[C@@]3(O)c4ccccc4N[C@H]3N2C(=O)[C@@H]([C@H](C)O)NC1=O [(+)-25, Cyclic Hexapeptide] (cyclo(L[dT][X1][dV]V[dPiz(5R-OH)])) | >64 | >64 | >64 | >64 |  |  | >64 | >64 |  |  | 
CC(C)[C@@H]1OC(=O)[C@@H](C(C)C)NC(=O)[C@@H]2C[C@@]3(O)c4ccccc4N[C@H]3N2C(=O)[C@@H]([C@H](C)O)NC(=O)[C@H](CCCCN=[N+]=[N-])NC(=O)[C@H]2C[C@@H](O)CNN2C1=O [(+)-31, Azido Cyclic Depsihexapeptide] (cyclo([Hiv][dPiz(5R-OH)][Lys(N3)][dT][X1][dV])) | >64 | >64 | >64 | >64 |  |  | >64 | >64 |  |  | 
CC(C)[C@@H]1OC(=O)[C@@H](C(C)C)NC(=O)[C@@H]2C[C@@]3(O)c4cc(-c5ccc6c(c5)[C@]5(O)C[C@H]7C(=O)N[C@H](C(C)C)C(=O)O[C@@H](C(C)C)C(=O)N8NC[C@H](O)C[C@@H]8C(=O)N[C@@H](CCCCN=[N+]=[N-])C(=O)N[C@H]([C@H](C)O)C(=O)N7[C@@H]5N6)ccc4N[C@H]3N2C(=O)[C@@H]([C@H](C)O)NC(=O)[C@H](CCCCN=[N+]=[N-])NC(=O)[C@H]2C[C@@H](O)CNN2C1=O [(−)-32, Himastatin ε-Azidolysine Derivative] | 0.5 (≈ 0.319 µM) | 2 (≈ 1.28 µM) | 2 (≈ 1.28 µM) | 1 (≈ 0.638 µM) | essentially no impact on the antibiotic activity |  | 8 (≈ 5.1 µM) | 1 (≈ 0.638 µM) |  |  | 
CC(C)C[C@@H]1NC(=O)[C@H]2C[C@@H](O)CNN2C(=O)[C@H](C(C)C)OC(=O)[C@@H](C(C)C)NC(=O)[C@@H]2C[C@@]3(O)c4ccccc4N[C@H]3N2C(=O)[C@@H]([C@H](C)O)NC1=O [(+)-6, Himastatin Monomer, reference compound] (cyclo([Hiv][dPiz(5R-OH)]L[dT][X1][dV])) | >64 | >64 | >64 | >64 | inactive |  | >64 | >64 |  |  | 
CC(C)C[C@H]1NC(=O)[C@@H]2C[C@H](O)CNN2C(=O)[C@@H](C(C)C)OC(=O)[C@H](C(C)C)NC(=O)[C@H]2C[C@]3(O)c4ccccc4N[C@@H]3N2C(=O)[C@H]([C@@H](C)O)NC1=O [(−)-6, ent-himastatin monomer] (cyclo([dL]T[X2]V[dHiv][X3])) | >64 | >64 | >64 | >64 |  |  | 8 (≈ 10.8 µM) | >64 |  |  | 
CC(C)C[C@@H]1NC(=O)[C@H]2C[C@@H](O)CNN2C(=O)[C@H](C(C)C)NC(=O)[C@@H](C(C)C)NC(=O)[C@@H]2C[C@@]3(O)c4cc(-c5ccc6c(c5)[C@]5(O)C[C@H]7C(=O)N[C@H](C(C)C)C(=O)N[C@@H](C(C)C)C(=O)N8NC[C@H](O)C[C@@H]8C(=O)N[C@@H](CC(C)C)C(=O)N[C@H]([C@H](C)O)C(=O)N7[C@@H]5N6)ccc4N[C@H]3N2C(=O)[C@@H]([C@H](C)O)NC1=O [(−)-26, Himastatin Lactam Derivative] | 16 (≈ 10.8 µM) | 8 (≈ 5.39 µM) | 32 (≈ 21.6 µM) | 32 (≈ 21.6 µM) | modest reduction in antibiotic activity |  | >64 | 16 (≈ 10.8 µM) | decreasing antibiotic activity |  | 
CC(C)C[C@@H]1NC(=O)[C@H]2C[C@@H](O)CNN2C(=O)[C@H](C(C)C)N(C)C(=O)[C@@H](C(C)C)NC(=O)[C@@H]2C[C@@]3(O)c4ccccc4N[C@H]3N2C(=O)[C@@H]([C@H](C)O)NC1=O [(+)-27, N-Methyl Cyclic Hexapeptide] (cyclo(L[dT][X1][dV][NMeV][dPiz(5R-OH)])) | >64 | >64 | >64 | >64 |  |  | >64 | >64 |  |  | 
CC(C)C[C@@H]1NC(=O)[C@H]2C[C@@H](O)CNN2C(=O)[C@H](C(C)C)OC(=O)[C@@H](C(C)C)NC(=O)[C@@H]2C[C@@]3(O)c4cc(-c5ccc6c(c5)[C@]5(O)C[C@H]7C(=O)N[C@H](C(C)C)C(=O)O[C@@H](C(C)C)C(=O)N8NC[C@H](O)C[C@@H]8C(=O)N[C@@H](CCCCNC(=O)c8ccc9c(c8)C(=O)OC98c9ccc(N(C)C)cc9Oc9cc(N(C)C)ccc98)C(=O)N[C@H]([C@H](C)O)C(=O)N7[C@@H]5N6)ccc4N[C@H]3N2C(=O)[C@@H]([C@H](C)O)NC1=O [(−)-25, TAMRA Himastatin Heterodimer] |  |  |  |  |  |  |  |  |  | 6 (≈ 3.14 µM) | ~8 (≈ 4.18 µM)
